Results as given in PMC5974779, “Prediction of Drug-Induced Hepatotoxicity Using Long-Term Stable Primary Hepatic 3D Spheroid Cultures in Chemically Defined Conditions” (Toxicological Sciences, 2018).
Read-outs that look alike come from different tables or passages of the source.

Experiments:
PHH 2D sandwich cultures = conditions: PHH 2D sandwich cultures, 100x Cmax; ref Xu 2008; cited from earlier work
[1] = test system: PHH spheroids (hanging-drop); conditions: cited from earlier work; for Hanging-drop spheroids (Proctor 2017) 100x: PHH hanging-drop spheroids, 100x Cmax, ref Proctor 2017; for hepatotoxicity classification in hanging-drop PHH spheroids: 100× cmax, 2 weeks, ref Proctor et al., 2017
[2] = test system: primary human hepatocytes (PHH) 3D spheroids
clinical DILI in man = conditions: cited from earlier work
[3] = therapeutic total cmax; ref PMID; cited from earlier work
[4] = ref DrugBank and Prescribers' Digital Reference database; cited from earlier work
[5] = FDA drug labeling DILI score, ref Chen et al., 2011
[6] = clinical DILI classification in man (POS/NEG)
[7] = clinical DILI classification used in this study, Supplementary Table 2, ref Chen et al., 2011, Guo et al., 2005, O'Brien et al., 2006, Sakatis et al., 2012, Suzuki et al., 2010, Xu et al., 2008
[8] = clinical DILI classification, Supplementary Table 1, ref Chen et al., 2011, Guo et al., 2005, O'Brien et al., 2006, Sakatis et al., 2012, Suzuki et al., 2010, Xu et al., 2008
[9] = reported pattern of liver damage, Supplementary Table 2, ref literature

Compound | 2Dsw (Xu 2008) 100x (PHH 2D sandwich cultures) | Hanging-drop spheroids (Proctor 2017) 100x [1] | Chemically defined spheroids (this study) 20x [2] | Classified as (clinical DILI in man; in vivo) | Clinical DILI class (panel heading of Figure 4) (clinical DILI in man; in vivo) | DILI in vivo (clinical DILI in man; in vivo) | FDA (0-8) (clinical DILI in man; in vivo) | Type of DILI (clinical DILI in man; in vivo) | Cmax [3] [nM] | Extent of hepatic metabolism [4] | hepatotoxicity evaluation in CD-spheroids [2] | Xu et al. (2008) (clinical DILI in man; in vivo) | further results
CCCCc1oc2ccccc2c1C(=O)c1cc(I)c(OCCN(CC)CC)c(I)c1 [Amiodarone] | Positive | Positive |  |  |  |  |  |  |  |  |  |  | 
CC(C(=O)O)c1ccc2oc(-c3ccc(Cl)cc3)nc2c1 (stereo not drawn) [Benoxaprofen] |  | Negative | Negative | POS | Severe DILI | POS | Withdrawn | Hepatocellular injury | 33100 | Moderate |  |  | FDA (Severity) (clinical DILI in man; in vivo): most DILI concern; Suzuki et al. (2010) (clinical DILI in man; in vivo): 3
COc1ccccc1Oc1c(NS(=O)(=O)c2ccc(C(C)(C)C)cc2)nc(-c2ncccn2)nc1OCCO [Bosentan] |  | Positive | Positive |  |  |  |  |  |  | Extensive | clearly detected bosentan-induced liver injury |  | Suzuki et al. (2010) (clinical DILI in man; DILI classification score, ref Suzuki et al. (2010)): 1; FDA (Severity) (clinical DILI in man; FDA drug labeling DILI concern, ref Chen et al., 2011): most DILI concern; FDA (0-8) (clinical DILI in man; [5]): 7; DILI in vivo (clinical DILI in man; [6]): POS; Classified as (clinical DILI in man; [7]): POS; DILI in vivo (clinical DILI in man; [8]): POS; Type of DILI (clinical DILI in man; [9]): Hepatocellular injury or Mixed hepatitis; Clinical DILI classification (Figure 5) (clinical DILI in man; structural analogue pairs, Figure 5, ref Chen et al., 2011, Xu et al., 2008 and others): DILI positive
CN(C)CCC(c1ccc(Cl)cc1)c1ccccn1 (stereo not drawn) [Chlorpheniramine] |  | Negative |  | NEG | DILI negative | NEG | 0 | Non-hepatotoxic |  | Extensive |  | Positive | 
CN(C)CCCN1c2ccccc2Sc2ccc(Cl)cc21 [Chlorpromazine] | Positive | Positive | Positive | POS | High DILI concern | POS | 2 | Cholestatic injury or Mixed hepatitis | 840 | Extensive |  | Positive | Guo et al. (2005) (clinical DILI in man; in vivo): 3; O'Brien et al. (2003) (clinical DILI in man; in vivo): Moderately; Sakatis et al. (2012) (clinical DILI in man; in vivo): Hepatotoxic; Suzuki et al. (2010) (clinical DILI in man; in vivo): 2
O=C1CN(/N=C/c2ccc(-c3ccc([N+](=O)[O-])cc3)o2)C(O)=N1 [Dantrolene] | Positive | Negative | Positive | POS | Severe DILI | POS | 8 | Hepatocellular injury or Mixed hepatitis | 3690 | Extensive | revealed the DILI liability | Positive | FDA (Severity) (clinical DILI in man; in vivo): most DILI concern; Guo et al. (2005) (clinical DILI in man; in vivo): 3; O'Brien et al. (2003) (clinical DILI in man; in vivo): Severely; Sakatis et al. (2012) (clinical DILI in man; in vivo): Hepatotoxic; hepatotoxicity classification in hanging-drop PHH spheroids [1]: previously missed
CCOC(=O)c1ncn2c1CN(C)C(=O)c1cc(F)ccc1-2 [Flumazenil] | Negative | Negative | Negative |  |  |  |  |  | 1120 | Extensive |  |  | FDA (0-8) (clinical DILI in man; [5]): 0; DILI in vivo (clinical DILI in man; [6]): NEG; Classified as (clinical DILI in man; [7]): NEG; DILI in vivo (clinical DILI in man; [8]): NEG; Xu et al. (2008) (clinical DILI in man; clinical DILI classification, ref Xu et al. (2008)): Negative; O'Brien et al. (2003) (clinical DILI in man; clinical hepatotoxicity classification, ref O'Brien et al. (2003)): Non-toxic; Type of DILI (clinical DILI in man; [9]): Non-hepatotoxic
COc1ccc2c(c1)c(CC(=O)O)c(C)n2C(=O)c1ccc(Cl)cc1 [Indomethacin] |  |  | Positive |  |  |  |  |  |  |  | revealed the DILI liability |  | hepatotoxicity evaluation in CD-spheroids ([2]; human, 14 days): clearly detected already at 1× cmax exposure levels; hepatotoxicity classification in hanging-drop PHH spheroids [1]: previously missed
